Measurements published in ChEMBL document CHEMBL1201862, “PubChem BioAssay data set” (2004).
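Five compound concentrations were applied to cells in 96-well plates for 48 hours; endpoints were derived by simple linear interpolation of the resulting dose-response curve. GI50 is the concentration that inhibits growth by half.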 Calls of active or inactive are those of the source. No stated cut-off is given here; in the data, active = GI50 up to about 1.1 µM and inactive = higher.

What was measured:
Experiment in all cases: DTP human tumour cell line panel, 48 h
NCI-H23 = test system: NCI-H23
SF-295 = test system: SF-295
A498 = test system: A498
HT-29 = test system: HT-29
HL-60 = test system: HL-60
DU-145 = test system: DU-145
HOP-92 = test system: HOP-92
MDA-MB-435 = test system: MDA-MB-435
MCF7 = test system: MCF7
HOP-62 = test system: HOP-62
A549 = test system: A549
OVCAR-8 = test system: OVCAR-8
U-251 = test system: U-251
SF-268 = test system: SF-268
SNB-19 = test system: SNB-19
SW-620 = test system: SW-620
OVCAR-5 = test system: OVCAR-5
MOLT-4 = test system: MOLT-4
Malme-3M = test system: Malme-3M
T47D = test system: T47D

| SMILES | GI50 (NCI-H23) | GI50 (SF-295) | GI50 (A498) | GI50 (HT-29) | GI50 (HL-60) | GI50 (DU-145) | GI50 (HOP-92) | GI50 (MDA-MB-435) | GI50 (MCF7) | GI50 (HOP-62) | GI50 (A549) | GI50 (OVCAR-8) | GI50 (U-251) | GI50 (SF-268) | GI50 (SNB-19) | GI50 (SW-620) | GI50 (OVCAR-5) | GI50 (MOLT-4) | GI50 (Malme-3M) | GI50 (T47D) |
| --- | --- | --- | --- | --- | --- | --- | --- | --- | --- | --- | --- | --- | --- | --- | --- | --- | --- | --- | --- | --- |
| CN(C)c1ccc(C=c2c3cc(O)ccc3n3c2cc(-c2ccccc2)[n+]3C)cc1 | 1.08 µM (active) | 3.78 µM (inactive) | 4.47 µM (inactive) | 1.69 µM (inactive) | 0.254 µM (active) | 1.92 µM (inactive) | 1.13 µM (inactive) | 0.964 µM (active) | 0.692 µM (active) | 1.81 µM (inactive) | 3.73 µM (inactive) | 0.76 µM (active) | 0.317 µM (active) | 0.446 µM (active) | 0.369 µM (active) | 1.22 µM (inactive) | 4.82 µM (inactive) | 3.27 µM (inactive) |  |  |
| O=C(CCc1nnc2s/c(=C\c3ccc4c(c3)OCO4)c(=O)n12)Nc1cc(Cl)ccc1Cl | > 100 µM (inactive) | > 100 µM (inactive) | > 100 µM (inactive) | > 100 µM (inactive) | > 55.2 µM (inactive) |  | > 100 µM (inactive) |  |  | > 100 µM (inactive) | > 100 µM (inactive) | > 100 µM (inactive) | > 100 µM (inactive) | > 100 µM (inactive) | > 100 µM (inactive) | > 43.6 µM (inactive) | > 100 µM (inactive) | > 100 µM (inactive) | > 100 µM (inactive) |  |
| O=C1Nc2c(Cl)cc(Cl)cc2/C1=N/N=C/c1ccccc1O | 19.5 µM (inactive) | 22.5 µM (inactive) | 18.7 µM (inactive) | 20.4 µM (inactive) | 21.1 µM (inactive) |  | 27.1 µM (inactive) | 21.7 µM (inactive) | 30 µM (inactive) | 17.2 µM (inactive) | 29.2 µM (inactive) | 21.4 µM (inactive) | 17.2 µM (inactive) |  | 61.8 µM (inactive) | 22 µM (inactive) | 21.5 µM (inactive) | 20.7 µM (inactive) | 27.9 µM (inactive) |  |
| COC(=O)/C=C/COCC1C2CCC(=O)C21 (centres undefined) | > 100 µM (inactive) | > 100 µM (inactive) |  | > 100 µM (inactive) |  | > 100 µM (inactive) | > 100 µM (inactive) | > 100 µM (inactive) | > 100 µM (inactive) | > 100 µM (inactive) | > 100 µM (inactive) | > 100 µM (inactive) | > 100 µM (inactive) | > 100 µM (inactive) | > 100 µM (inactive) | > 100 µM (inactive) | > 100 µM (inactive) | > 100 µM (inactive) | > 100 µM (inactive) |  |
| CCOCN/C(N)=N\C#N | > 100 µM (inactive) | > 100 µM (inactive) | > 100 µM (inactive) | > 100 µM (inactive) | > 100 µM (inactive) |  | > 100 µM (inactive) |  |  | > 100 µM (inactive) | > 100 µM (inactive) | > 100 µM (inactive) | > 100 µM (inactive) | > 100 µM (inactive) | > 100 µM (inactive) | 18.3 µM (inactive) | > 100 µM (inactive) | > 100 µM (inactive) | > 100 µM (inactive) |  |
| CCCN1CN(C(C(=O)N[C@@H]2C(=O)N3C(C(=O)O)=C(C)CSC23)c2ccc(O)cc2)CSC1=S (some centres undefined) | > 100 µM (inactive) | > 100 µM (inactive) | > 100 µM (inactive) | > 100 µM (inactive) | 65.9 µM (inactive) |  | > 100 µM (inactive) |  |  | > 100 µM (inactive) | > 100 µM (inactive) | > 100 µM (inactive) | 97.5 µM (inactive) | > 100 µM (inactive) | > 100 µM (inactive) | 14.2 µM (inactive) | > 100 µM (inactive) | 57.3 µM (inactive) | > 100 µM (inactive) |  |
| CCc1ccccc1NC(=O)C(=O)C(C#N)c1ccccc1Cl (centres undefined) | > 100 µM (inactive) | > 100 µM (inactive) | 35.5 µM (inactive) | > 100 µM (inactive) | > 100 µM (inactive) |  | > 100 µM (inactive) |  |  | > 100 µM (inactive) | > 100 µM (inactive) | > 100 µM (inactive) | > 100 µM (inactive) | > 100 µM (inactive) | > 100 µM (inactive) | > 100 µM (inactive) | > 100 µM (inactive) | > 100 µM (inactive) | > 100 µM (inactive) |  |
| C/C(=N\NC(N)=O)C(CN1CCOCC1)C(c1ccccc1)c1c(O)c2ccccc2oc1=O (centres undefined) | > 100 µM (inactive) |  | 8.63 µM (inactive) | > 100 µM (inactive) | > 100 µM (inactive) | > 100 µM (inactive) | > 100 µM (inactive) | > 100 µM (inactive) | > 100 µM (inactive) |  | > 100 µM (inactive) | > 100 µM (inactive) | > 100 µM (inactive) | > 100 µM (inactive) | > 100 µM (inactive) | > 100 µM (inactive) | > 100 µM (inactive) | > 100 µM (inactive) | > 100 µM (inactive) |  |
| CC1=C/C(=N/N2C(=O)/C(=C/c3ccc(Cl)cc3)N=C2c2ccccc2)CC(C)(C)C1 | > 100 µM (inactive) | 51.9 µM (inactive) | > 100 µM (inactive) | 70.5 µM (inactive) |  |  | 94.8 µM (inactive) | 51.3 µM (inactive) | 49.8 µM (inactive) | 54.2 µM (inactive) | 78.2 µM (inactive) | 32.7 µM (inactive) | 21.5 µM (inactive) | 73.3 µM (inactive) | 65.5 µM (inactive) | 76.2 µM (inactive) | > 100 µM (inactive) | 25 µM (inactive) | > 100 µM (inactive) | 85.9 µM (inactive) |
| COc1ccc2nc(NC(=O)C(=O)C(C#N)c3ccc(CC#N)cc3)sc2c1 (centres undefined) | > 100 µM (inactive) | > 100 µM (inactive) | > 100 µM (inactive) | > 100 µM (inactive) | > 100 µM (inactive) |  | 96.8 µM (inactive) |  |  | > 100 µM (inactive) | > 100 µM (inactive) | > 100 µM (inactive) | > 100 µM (inactive) | > 100 µM (inactive) | 53 µM (inactive) | > 100 µM (inactive) | > 100 µM (inactive) | > 100 µM (inactive) | > 100 µM (inactive) |  |
| O=C(C#Cc1ccccc1)NC/C=C/c1ccccc1 | 44.4 µM (inactive) | 38.6 µM (inactive) | 52 µM (inactive) | 50.2 µM (inactive) | 24.1 µM (inactive) |  | 25.4 µM (inactive) |  |  | 22.8 µM (inactive) | 36 µM (inactive) | 35.2 µM (inactive) | 39 µM (inactive) | 31.5 µM (inactive) | 26.7 µM (inactive) | 36.9 µM (inactive) | > 100 µM (inactive) | 33.6 µM (inactive) | 49.8 µM (inactive) |  |
| NC1=NS(=O)(=O)Nc2nc(-c3cccs3)[nH]c21 | > 100 µM (inactive) | > 100 µM (inactive) | > 100 µM (inactive) | > 100 µM (inactive) | > 100 µM (inactive) |  | > 100 µM (inactive) |  |  | > 100 µM (inactive) | > 100 µM (inactive) | > 100 µM (inactive) | > 100 µM (inactive) | > 100 µM (inactive) | > 100 µM (inactive) | > 100 µM (inactive) | > 100 µM (inactive) | > 100 µM (inactive) | > 100 µM (inactive) |  |
| Nc1nc[n+](Cc2ccccc2CCO)c2[nH]cnc12 | > 100 µM (inactive) | > 100 µM (inactive) | > 100 µM (inactive) | > 100 µM (inactive) | > 100 µM (inactive) |  | > 100 µM (inactive) |  |  | > 100 µM (inactive) | > 100 µM (inactive) | > 100 µM (inactive) | > 100 µM (inactive) | > 100 µM (inactive) | > 100 µM (inactive) | > 100 µM (inactive) | > 100 µM (inactive) | > 100 µM (inactive) | > 100 µM (inactive) |  |
| CCN(CC)c1nnc(CCCCCCCCc2nnc(N(CC)CC)o2)o1 | > 100 µM (inactive) | > 100 µM (inactive) | > 100 µM (inactive) | > 100 µM (inactive) | > 100 µM (inactive) | > 100 µM (inactive) | > 100 µM (inactive) | > 100 µM (inactive) | > 100 µM (inactive) | > 100 µM (inactive) | > 100 µM (inactive) | > 100 µM (inactive) | > 100 µM (inactive) | > 100 µM (inactive) | > 100 µM (inactive) | > 100 µM (inactive) | > 100 µM (inactive) | > 100 µM (inactive) | > 100 µM (inactive) |  |
| C#CC1(O)CCC2[C@@H]3CCc4cc(Oc5nc(F)nc(-c6c7ccccc7cn6C)n5)ccc4C3CC[C@@]21C (some centres undefined) | > 100 µM (inactive) | > 100 µM (inactive) | > 100 µM (inactive) | > 100 µM (inactive) | > 70.5 µM (inactive) |  | > 100 µM (inactive) |  |  | > 100 µM (inactive) | > 100 µM (inactive) | > 100 µM (inactive) | > 100 µM (inactive) | > 88.1 µM (inactive) | > 100 µM (inactive) | 55.5 µM (inactive) | > 100 µM (inactive) | 44.9 µM (inactive) | > 100 µM (inactive) |  |
| CC(=O)c1cccc(NC(=O)C(=O)c2c(O)oc3ccccc3c2=O)c1 | > 100 µM (inactive) | > 100 µM (inactive) | > 100 µM (inactive) | > 100 µM (inactive) | 10 µM (inactive) |  | > 100 µM (inactive) | > 100 µM (inactive) | > 100 µM (inactive) | > 100 µM (inactive) | > 100 µM (inactive) | > 100 µM (inactive) | > 100 µM (inactive) | > 100 µM (inactive) | > 100 µM (inactive) | > 100 µM (inactive) | > 100 µM (inactive) | > 100 µM (inactive) | > 100 µM (inactive) | > 100 µM (inactive) |
